Results from publication PMC4257840 (Journal of Medicinal Chemistry, 2014).

Key:
[1] = target: T1, human plasma thrombin (Homo sapiens, UniProt P00734); experiment: Protease counter-screening: Thrombin; assay type: biochemical; details: test concentration 0.3-100 µM
T1 construct: thrombin in modified HEPES buffer pH 7.5; from tissue; host or cells: human plasma
Method: (§1) Appendix 7. Protease Counter -Screening
(§2) Protease counter-screeni ng was performed using the methods described below. Initial screening was conducted in duplicate using a single test substance concentration of 10 µ M .
(§3) Additional assays were conducted in replicate for selected pairin gs of test s ubstance and enz yme in order to enable the determination of IC50 values using conventional procedures.
(§4) Determination of K i was made using the Batch K i program (Biokin Ltd, Pullman, WA) to derive values from the Morrison equation: […]
(§5) Where [E ] is the active enz yme concentration, Kiapp is the apparent inhibition const ant, v 0 is the control velocit y in the absence of inhibitors, vb is the background velocity, v is the initial reaction velocit y in the presence of inhibitor, and I is the inhibitor concentration.Thence:
Where [S ] is the substrate concentration and KM is the Michealis constant.
Caspase 1: Activity against human recombinant caspase 1 expressed in E. coli was tested using Ac-YVAD- AMC as the substrate. Test compound or vehicle was pre- incubated with 600 […]
followed by excitation/emission at 485/535 nm. […]
AMC formation was read at 360 nm/465 nm.
Cathepsin L2: Human recombinant cathepsin L2 expressed in NS0 cells was used as the enzyme source. […] Form ation of AMC was measured at 360 […]
The amount of AMC formed was read spectrofluorimetricall y at 360 nm/465 nm. […]

[2] = Measurement of LogD7.4 (n-octanol/PBS shake); assay type: physicochemical; details: single determination, n-octanol/PBS pH 7.4; read-out: Log D7.4
Method: Appendix 4. Measurement of LogD7.4
Test compounds (~1 mg) were weighed into 2 mL HPLC vials. n- Octanol (0.7 mL), pre-saturated with 10 mM phosphate buffered saline pH7.4 (PBS), was added to each vial followed b y PBS (0. 7 mL), which had been pre-saturat ed with n-octanol. The mixtures were shaken for 90 min and then centrifuged for 10 min at 4,000 rpm. The upper organic l ayer (0.2 m L) and the aqueous la yer (0.5 mL) were removed from each vial and anal yz e d b y LC -MS. Mass spect ral anal ysis was used to confirm peak identity whilst the concentration of compound was assessed by a diode arra y det ecto r. The logD for each compound was calculated b y takin g th e lo g of its concentration ratio between the oct anol and aqueous la ye r s.Given the robustness of the assa y and the fact that the info rmation was us ed onl y for gen eral guid ance, thes e measu rements were based on singlicate det erminations.

[3] = target: T2, human recombinant caspase 9 (Homo sapiens, UniProt P55211); experiment: Protease counter-screening: Caspase 9; assay type: biochemical
T2 construct: host or cells: E. coli
Method: as §1, §2, §3, §4, §5
(§6) Where [S ] is the substrate concentration and KM is the Michealis constant. […]
by addition of 50 µM Ac-DEVD-AMC for another 60 min incubation period. The amount of AMC formed was determined fluorimetricall y (excitation 360 nm/emission 465 nm). […]
by addition of 25 µM Ac-LEH D-A FC for another 60 min incubation period. The amount of amino-4- trifluorometh ylcoumarin (AFC) formed determined fluorimetrically (400nm/ 510nm).
Cathepsin C: Cathepsin C from bovine spleen was used as the source of enz yme. […] T he amount of AMC product formed was read spectrofluorimetrically

[4] = target: T3, Human recombinant MMP-3 (Homo sapiens, UniProt P08254); experiment: Protease counter-screening: MMP-3; assay type: biochemical
T3 construct: host or cells: E. coli
Method: as §1, §2, §3, §4, §5, §6
Test compound or vehicle was pre- incubated with 600 […]
The reaction was […]
initiated by addition of 1 µM N-CH3-SO2-D-FGR-pNA for another 120 min incubation period. […]
Matrix metalloprotease-3 (MMP-3 ): Human recombinant MMP-3 proenz yme expressed in E. coli was activated with 4-aminophen yl mercuric acetate (APMA) for 60 min at 37 °C. […] The amount of MCA-PLG formed was read spectrofluorimetricall y at 340 nm/400 nm.

T3 sequence (P08254 100-477): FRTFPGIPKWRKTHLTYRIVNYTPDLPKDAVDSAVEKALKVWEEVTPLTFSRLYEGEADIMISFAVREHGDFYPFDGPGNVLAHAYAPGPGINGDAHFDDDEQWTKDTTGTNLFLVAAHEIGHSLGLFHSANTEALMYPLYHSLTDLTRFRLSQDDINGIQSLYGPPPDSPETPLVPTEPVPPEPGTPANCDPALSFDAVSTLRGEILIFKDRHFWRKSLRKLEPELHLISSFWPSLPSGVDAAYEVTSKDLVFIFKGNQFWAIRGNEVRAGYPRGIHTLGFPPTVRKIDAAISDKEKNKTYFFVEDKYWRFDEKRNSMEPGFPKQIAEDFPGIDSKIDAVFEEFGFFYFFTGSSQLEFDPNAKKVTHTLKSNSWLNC
T2 sequence (P55211 1-315 limits assumed): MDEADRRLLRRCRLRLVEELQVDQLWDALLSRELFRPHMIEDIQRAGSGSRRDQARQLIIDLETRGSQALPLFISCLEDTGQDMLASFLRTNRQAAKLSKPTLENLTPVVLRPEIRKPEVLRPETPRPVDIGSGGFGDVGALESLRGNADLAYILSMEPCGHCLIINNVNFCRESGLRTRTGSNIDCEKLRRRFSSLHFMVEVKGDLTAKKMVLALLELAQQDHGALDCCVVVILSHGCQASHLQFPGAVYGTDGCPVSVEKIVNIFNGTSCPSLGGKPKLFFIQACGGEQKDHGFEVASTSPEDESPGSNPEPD
T2 sequence (P55211 331-416 limits assumed): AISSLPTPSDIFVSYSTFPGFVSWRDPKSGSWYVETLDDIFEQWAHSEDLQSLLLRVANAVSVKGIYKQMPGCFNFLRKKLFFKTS

## CC(C)[C@H](NC(=O)[C@H](C)NC(=O)[C@@H](NC(=O)c1ccccc1)C(C)(C)C)C(=O)C(=O)NCc1ccccc1 [Compound 38, N-{(S)-1-[(S)-1-((S)-1-Benzylaminooxalyl-2-methyl-propylcarbamoyl)-ethylcarbamoyl]-2,2-dimethyl-propyl}-benzamide]
[1]
  IC50: > 100 µM
[2]
  logD at 1.5 h: 3.2
[3]
  inhibition at 10 µM: 0%
[4]
  inhibition at 10 µM: 0%
